Assay results reported in patent US12384776B2, “Compounds and uses thereof” (Foghorn Therapeutics Inc., priority 2019, dated 2025).

Biological target: Nanoluciferase-BRD9 fusion protein (3×FLAG-NLuc-BRD9) in SYO-1 cells (Homo sapiens (Human), UniProt Q9H8M2)
Test: SYO1 BRD9 NanoLuc degradation assay
Type: cell-based
Settings: SYO-1 cells expressing 3×FLAG-NLuc-BRD9, 6 hours incubation, top dose 1 μM
Summary of the method: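 Degradation read as loss of NLuc signal after 6 h compound exposure (1 μM top final, 3-fold steps, 10 points, duplicates) in SYO-1 cells stably carrying 3×FLAG-NLuc-BRD9. Signal normalised between DMSO-treated cells and cells given 1 μM of a known BRD9 degrader.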

Nanoluciferase-BRD9 fusion protein (3×FLAG-NLuc-BRD9) in SYO-1 cells, sequence (Q9H8M2 whole entry, the tested form may be a part): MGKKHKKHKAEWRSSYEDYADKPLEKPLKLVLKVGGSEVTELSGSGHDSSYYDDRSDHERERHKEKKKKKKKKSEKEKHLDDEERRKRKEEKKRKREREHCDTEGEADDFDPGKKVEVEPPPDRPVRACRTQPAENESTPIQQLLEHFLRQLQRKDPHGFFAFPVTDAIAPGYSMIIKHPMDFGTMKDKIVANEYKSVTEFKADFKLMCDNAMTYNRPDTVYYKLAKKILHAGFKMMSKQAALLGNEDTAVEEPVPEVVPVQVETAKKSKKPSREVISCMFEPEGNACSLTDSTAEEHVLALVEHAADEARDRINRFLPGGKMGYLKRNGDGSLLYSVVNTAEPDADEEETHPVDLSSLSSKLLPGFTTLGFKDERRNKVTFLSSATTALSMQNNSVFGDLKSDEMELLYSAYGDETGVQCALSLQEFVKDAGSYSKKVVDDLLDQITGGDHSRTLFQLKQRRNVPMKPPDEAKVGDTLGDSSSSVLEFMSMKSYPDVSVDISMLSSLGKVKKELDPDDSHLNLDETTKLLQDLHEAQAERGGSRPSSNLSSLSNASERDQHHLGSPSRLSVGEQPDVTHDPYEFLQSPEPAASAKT

Question: For `CNC(=O)N1CCc2c(-c3cc(OC)c(CC4CCN(CCN5CCN(c6ccc7c(c6)C(=O)N(C6CCC(=O)NC6=O)C7=O)CC5)CC4)c(OC)c3)cn(C)c(=O)c2C1` (stereo not shown) [Compound D130], which IC50 is on record?
Answer: The IC50 was less than 10 nM.

Question: Which IC50 does the source give for `CNC(=O)N1CCc2c(-c3cc(OC)c(CN4CCN(c5ccc6c(c5)C(=O)N(C5CCC(=O)NC5=O)C6=O)CC4)c(OC)c3)cn(C)c(=O)c2C1` (stereo not shown) [Compound D131] here?
Answer: The IC50 was less than 10 nM.

Question: For `CNC(=O)N1CCc2c(-c3cc(OC)c(CN4CC(N5CCN(c6ccc7c(c6)C(=O)N(C6CCC(=O)NC6=O)C7=O)CC5)C4)c(OC)c3)cn(C)c(=O)c2C1` (stereo not shown) [Compound D132], which IC50 is on record?
Answer: The IC50 was less than 10 nM.

Question: With `CNC(=O)N1CCc2c(-c3cc(OC)c(CN4CCC(CN5CCC6(CC5)CN(c5ccc7c(c5)C(=O)N(C5CCC(=O)NC5=O)C7=O)C6)CC4)c(OC)c3)cn(C)c(=O)c2C1` (stereo not shown) [Compound D136] as the compound, how does the IC50 read?
Answer: The IC50 was less than 10 nM.

Question: Which IC50 does the source give for `CNC(=O)N1CCc2c(-c3cc(OC)c(CN4CCC5(CC4)CCN(C(C)(C)C#Cc4ccc6c(c4)C(=O)N(C4CCC(=O)NC4=O)C6=O)C5)c(OC)c3)cn(C)c(=O)c2C1` (stereo not shown) [Compound D137] here?
Answer: The IC50 was 10 to 100 nM.

Question: How did the IC50 turn out when `CNC(=O)N1CCc2c(-c3cc(OC)c(CN4CC5CC4CC5CCN4CCN(c5ccc6c(c5)C(=O)N(C5CCC(=O)NC5=O)C6=O)CC4)c(OC)c3)cn(C)c(=O)c2C1` (stereo not shown) [Compound D138] was run?
Answer: Its IC50 is less than 10 nM.

Question: `CNC(=O)N1CCc2c(-c3cc(OC)c(CN4CCN(CCN5CCN(c6ccc7c(c6)C(=O)N(C6CCC(=O)NC6=O)C7=O)CC5)CC4)c(OC)c3)cn(C)c(=O)c2C1` (stereo not shown) [Compound D139] was tested. Which IC50 did it give?
Answer: Its IC50 is less than 10 nM.

Question: `CNC(=O)N1CCc2c(-c3cc(OC)c(CN4CCC5(CC4)CN(CCCN4CCN(c6ccc7c(c6)C(=O)N(C6CCC(=O)NC6=O)C7=O)CC4)CCO5)c(OC)c3)cn(C)c(=O)c2C1` (stereo not shown) [Compound D140] was tested. Which IC50 did it give?
Answer: Its IC50 is less than 10 nM.

Question: Which IC50 does the source give for `CNC(=O)N1CCc2c(-c3cc(OC)c(CN4[C@H](C)CN(CCC5CCN(c6ccc7c(c6)C(=O)N(C6CCC(=O)NC6=O)C7=O)CC5)C[C@@H]4C)c(OC)c3)cn(C)c(=O)c2C1` (stereo partly shown) [Compound D141] here?
Answer: Its IC50 is less than 10 nM.

Question: With `CNC(=O)N1CCc2c(-c3cc(OC)c(CN4CC(C#Cc5ccc6c(c5)C(=O)N(C5CCC(=O)NC5=O)C6=O)C4)c(OC)c3)cn(C)c(=O)c2C1` (stereo not shown) [Compound D142] as the compound, how does the IC50 read?
Answer: Its IC50 is less than 10 nM.

Question: With `CNC(=O)N1CCc2c(-c3cc(OC)c(CN4CCC(C#Cc5ccc6c(c5)C(=O)N(C5CCC(=O)NC5=O)C6=O)CC4)c(OC)c3)cn(C)c(=O)c2C1` (stereo not shown) [Compound D143] as the compound, how does the IC50 read?
Answer: The IC50 was less than 10 nM.

Question: For `CNC(=O)N1CCc2c(-c3cc(OC)c(CN4CC(C(=O)N5CC6(CCN(c7ccc8c(c7)C(=O)N(C7CCC(=O)NC7=O)C8=O)C6)C5)C4)c(OC)c3)cn(C)c(=O)c2C1` (stereo not shown) [Compound D144], which IC50 is on record?
Answer: The IC50 was 10 to 100 nM.

Question: With `CNC(=O)N1CCc2c(-c3cc(OC)c(CN4CCC(CCN5C(C)CN(c6ccc7c(c6)C(=O)N(C6CCC(=O)NC6=O)C7=O)CC5C)CC4)c(OC)c3)cn(C)c(=O)c2C1` (stereo not shown) [Compound D145] as the compound, how does the IC50 read?
Answer: The IC50 was less than 10 nM.

Question: `CNC(=O)N1CCc2c(-c3cc(OC)c(CN4CC5(CC(N6CCN(c7ccc8c(c7)C(=O)N(C7CCC(=O)NC7=O)C8=O)CC6)C5)C4)c(OC)c3)cn(C)c(=O)c2C1` (stereo not shown) [Compound D146] was tested. Which IC50 did it give?
Answer: Its IC50 is less than 10 nM.

Question: How did the IC50 turn out when `CNC(=O)N1CCc2c(-c3cc(OC)c(CN4CCC(F)(CN5CCN(c6ccc7c(c6)C(=O)N(C6CCC(=O)NC6=O)C7=O)CC5)CC4)c(OC)c3)cn(C)c(=O)c2C1` (stereo not shown) [Compound D147] was run?
Answer: The IC50 was less than 10 nM.

Question: Which IC50 does the source give for `CNC(=O)N1CCc2c(-c3cc(OC)c(CN4CCC(CCN5CCN(c6ccc7c(c6)C(=O)N(C6CCC(=O)NC6=O)C7=O)CC5)C4)c(OC)c3)cn(C)c(=O)c2C1` (stereo not shown) [Compound D148] here?
Answer: Its IC50 is 10 to 100 nM.

Question: How did the IC50 turn out when `CNC(=O)N1CCc2c(-c3cc(OC)c(CN4CCC(CN(C)C5CC(Oc6ccc7c(c6)C(=O)N(C6CCC(=O)NC6=O)C7=O)C5)CC4)c(OC)c3)cn(C)c(=O)c2C1` (stereo not shown) [Compound D149] was run?
Answer: The IC50 was less than 10 nM.

Question: With `COc1cc(-c2cn(C)c(=O)c3c2CCN(C(=O)NCCN2CCN(c4ccc5c(c4)C(=O)N(C4CCC(=O)NC4=O)C5=O)CC2)C3)cc(OC)c1CN(C)C` (stereo not shown) [Compound D150] as the compound, how does the IC50 read?
Answer: Its IC50 is 10 to 100 nM.

Question: `CNC(=O)N1CCc2c(-c3cc(OC)c(CN4CCOC(CCCN5CCN(c6ccc7c(c6)C(=O)N(C6CCC(=O)NC6=O)C7=O)CC5)C4)c(OC)c3)cn(C)c(=O)c2C1` (stereo not shown) [Compound D151] was tested. Which IC50 did it give?
Answer: Its IC50 is less than 10 nM.
